From ChEMBL document CHEMBL1122305, “Adriamycin analogues. Preparation and biological evaluation of some novel 14-thiaadriamycins” (1983)

Tests used:
[1] = test system: L1210; assay: Percent increase in life span relative to untreated controls in murine L1210 leukemia infected B6D2F1J male mice at 101.25 mg/kg optimal dose; type: functional; conditions: Mus musculus
[2] = test system: CCRF-CEM; assay: In vitro growth inhibition against CCRF-CEM (human lymphoblastic leukemic) cell line.; type: functional; conditions: read-out: ID50 (the source's name)
[3] = test system: L1210; assay: Percent increase in life span relative to untreated controls in murine L1210 leukemia infected B6D2F1J male mice at 60 mg/kg optimal dose; type: functional; conditions: Mus musculus
[4] = test system: L1210; assay: Percent increase in life span relative to untreated controls in murine L1210 leukemia infected B6D2F1J male mice at […] optimal dose; type: functional, Mus musculus
[5] = test system: L1210; assay: Percent increase in life span relative to untreated controls in murine L1210 leukemia infected B6D2F1J male mice at 10.13 mg/kg optimal dose; type: functional; conditions: Mus musculus
[6] = test system: L1210; assay: Percent increase in life span relative to untreated controls in murine L1210 leukemia infected B6D2F1J male mice at 30 mg/kg optimal dose; type: functional; conditions: Mus musculus
[7] = test system: L1210; assay: Percent increase in life span relative to untreated controls in murine L1210 leukemia infected B6D2F1J male mice at 50 mg/kg optimal dose; type: functional; conditions: Mus musculus
[8] = test system: L1210; assay: Percent increase in life span relative to untreated controls in murine L1210 leukemia infected B6D2F1J male mice at 4 mg/kg optimal dose; type: functional; conditions: Mus musculus

| SMILES | IC50 [2] | other results |
| --- | --- | --- |
| COc1cccc2c1C(=O)c1c(O)c3c(c(O)c1C2=O)C[C@@](O)(C(=O)CSc1ccccc1)C[C@@H]3OC1CC(NC(=O)C(F)(F)F)C(O)C(C)O1 (stereo not given in full) | > 13700 nM | ILS at 101.25 mg/kg [1]: 10% |
| COc1cccc2c1C(=O)c1c(O)c3c(c(O)c1C2=O)C[C@@](O)(C(=O)C[Se]c1ccccc1)C[C@@H]3OC1CC(NC(=O)C(F)(F)F)C(O)C(C)O1 (stereo not given in full) | 2800 nM | ILS at 60 mg/kg [3]: 66% |
| CCOC(=O)CSCC(=O)[C@]1(O)Cc2c(O)c3c(c(O)c2[C@@H](OC2CC(NC(=O)C(F)(F)F)C(O)C(C)O2)C1)C(=O)c1c(OC)cccc1C3=O (stereo not given in full) | 5330 nM | ILS [4]: 0% |
| CCCCCSCC(=O)[C@]1(O)Cc2c(O)c3c(c(O)c2[C@@H](OC2CC(N)C(O)C(C)O2)C1)C(=O)c1c(OC)cccc1C3=O (stereo not given in full) | 950 nM | ILS at 10.13 mg/kg [5]: 33% |
| COc1cccc2c1C(=O)c1c(O)c3c(c(O)c1C2=O)C[C@@](O)(C(=O)CSCCSCC(=O)[C@]1(O)Cc2c(O)c4c(c(O)c2[C@H](OC2CC(N)C(O)C(C)O2)C1)C(=O)c1c(OC)cccc1C4=O)C[C@@H]3OC1CC(N)C(O)C(C)O1 (stereo not given in full) | 1060 nM |  |
| COc1cccc2c1C(=O)c1c(O)c3c(c(O)c1C2=O)C[C@@](O)(C(=O)C[Se]c1ccccc1)C[C@@H]3OC1CC(N)C(O)C(C)O1 (stereo not given in full) | 400 nM |  |
| COc1cccc2c1C(=O)c1c(O)c3c(c(O)c1C2=O)C[C@@](O)(C(=O)CSCCCSCC(=O)[C@]1(O)Cc2c(O)c4c(c(O)c2[C@@H](OC2CC(N)C(O)C(C)O2)C1)C(=O)c1c(OC)cccc1C4=O)C[C@@H]3OC1CC(N)C(O)C(C)O1 (stereo not given in full) | 830 nM |  |
| CCOC(=O)CSCC(=O)[C@]1(O)Cc2c(O)c3c(c(O)c2[C@@H](OC2CC(N)C(O)C(C)O2)C1)C(=O)c1c(OC)cccc1C3=O (stereo not given in full) | 230 nM | ILS at 30 mg/kg [6]: 50% |
| CCCCSCC(=O)[C@]1(O)Cc2c(O)c3c(c(O)c2[C@@H](OC2CC(NC(=O)C(F)(F)F)C(O)C(C)O2)C1)C(=O)c1c(OC)cccc1C3=O (stereo not given in full) | 5620 nM | ILS [4]: 0% |
| CCCCC(=O)OCC(=O)[C@]1(O)Cc2c(O)c3c(c(O)c2[C@@H](OC2CC(NC(=O)C(F)(F)F)C(O)C(C)O2)C1)C(=O)c1c(OC)cccc1C3=O (stereo not given in full) | 240 nM | ILS at 50 mg/kg [7]: > 455% |
| CCCCSCC(=O)[C@]1(O)Cc2c(O)c3c(c(O)c2[C@@H](OC2CC(N)C(O)C(C)O2)C1)C(=O)c1c(OC)cccc1C3=O (stereo not given in full) | 250 nM | ILS at 10.13 mg/kg [5]: 33% |
| CCCCCSCC(=O)[C@]1(O)Cc2c(O)c3c(c(O)c2[C@@H](OC2CC(NC(=O)C(F)(F)F)C(O)C(C)O2)C1)C(=O)c1c(OC)cccc1C3=O (stereo not given in full) | > 13800 nM | ILS [4]: 10% |
| CCCCCCCCCCCCSCC(=O)[C@]1(O)Cc2c(O)c3c(c(O)c2[C@@H](OC2CC(N)C(O)C(C)O2)C1)C(=O)c1c(OC)cccc1C3=O (stereo not given in full) | 1440 nM | ILS at 10.13 mg/kg [5]: 11% |
| COc1cccc2c1C(=O)c1c(O)c3c(c(O)c1C2=O)C[C@@](O)(C(=O)CSc1ccccc1)C[C@@H]3OC1CC(N)C(O)C(C)O1 (stereo not given in full) | 870 nM | ILS at 10.13 mg/kg [5]: 22% |
| CCCCCCCCCCCCSCC(=O)[C@]1(O)Cc2c(O)c3c(c(O)c2[C@@H](OC2CC(NC(=O)C(F)(F)F)C(O)C(C)O2)C1)C(=O)c1c(OC)cccc1C3=O (stereo not given in full) | > 15000 nM | ILS [4]: 0% |
| COc1cccc2c1C(=O)c1c(O)c3c(c(O)c1C2=O)C[C@@](O)(C(=O)CO)C[C@@H]3O[C@H]1C[C@H](N)[C@H](O)[C@H](C)O1 [DOXORUBICIN] | 66 nM | ILS at 4 mg/kg [8]: 50% |
| COc1cccc2c1C(=O)c1c(O)c3c(c(O)c1C2=O)C[C@@](O)(C(=O)CSCCCCCCCCCSCC(=O)[C@]1(O)Cc2c(O)c4c(c(O)c2[C@H](OC2CC(N)C(O)C(C)O2)C1)C(=O)c1c(OC)cccc1C4=O)C[C@@H]3OC1CC(N)C(O)C(C)O1 (stereo not given in full) | 1230 nM |  |
